Source: patent US5089273A, “Ecteinascidins 729, 743, 745, 759A, 759B and 770” (priority 1990, dated 1992)

How the values were obtained:
B16 Melanoma = test: Antitumor activity vs. B16 Melanoma; type: in vivo; details: 0.01 mg/kg; Table 5
P388 leukemia = test: In vivo P388 mouse leukemia test; details: for antitumor activity (in words): mouse, in vivo
Excerpt: Compounds of this invention are also active in vivo against P388 leukemia in mice. The P388 mouse leukemia test is described in detail in a publication by G. L. Neil et al., Cancer Treatment Reports, 63: 1971-1978 (1979).

bacteria = test: Antibacterial Activity (disk zone of inhibition, Example 4); type: cell-based
Excerpt: | Zone of inhibition (mm)

CV-1 cells = test: Cytotoxic activity vs. CV-1 cells (disk zones of inhibition); type: cell-based; details: Cercopithecidae, read-out: Zones of Inhibition
Protocol: (§1) The antimicrobial activities (vs. M. luteus) and the cytotoxic activities (vs. CV-1 cells) of the ecteinascidins and ecteinascidin 743 derivatives are shown in Table 1 and 2. […] All of the derivatives of ecteinascidin 743 that were prepared have antimicrobial and cytotoxic activities.

M. luteus = test: Antimicrobial activity vs. M. luteus (disk zones of inhibition); type: cell-based
Protocol: as §1

COc1cc2c(cc1O)CCN[C@]21CS[C@@H]2c3c(OC(C)=O)c(C)c4c(c3[C@H](COC1=O)N1[C@@H]2[C@@H]2N[C@@H](Cc3cc(C)c(OC)c(O)c32)[C@@H]1O)OCO4 [Ecteinascidin 729]
T/C (%) (B16 Melanoma): 246%
T/C (%) (P388 leukemia; 0.0038 mg/kg, Table 4): 214%
antitumor activity (in words) (P388 leukemia): strong antitumor activity
antitumor activity (in words) (P388 leukemia; listed as Et 729): the most active antitumor agent
zone of inhibition at 0.063 µg/disc (bacteria; 0.063 μg/disk): 19 mm
zone of inhibition at 0.125 µg/disc (bacteria; 0.125 μg/disk): 20 mm
zone of inhibition at 0.25 µg/disc (bacteria; 0.250 μg/disk): 22 mm
zone of inhibition at 0.05 µg/disc (CV-1 cells; 50 ng/6.35-mm disk): 9 mm
zone of inhibition at 0.1 µg/disc (CV-1 cells; 100 ng/6.35-mm disk): 10 mm
zone of inhibition at 0.2 µg/disc (CV-1 cells; 200 ng/6.35-mm disk): 10 mm
zone of inhibition at 0.4 µg/disc (CV-1 cells; 400 ng/6.35-mm disk): 13 mm
zone of inhibition at 0.8 µg/disc (CV-1 cells; 800 ng/6.35-mm disk): 16 mm
zone of inhibition at 1.6 µg/disc (CV-1 cells; 1600 ng/6.35-mm disk): 18 mm
zone of inhibition at 0.05 µg/disc (M. luteus; Micrococcus luteus, 50 ng/6.35-mm disk): 7 mm
zone of inhibition at 0.1 µg/disc (M. luteus; Micrococcus luteus, 100 ng/6.35-mm disk): 8 mm
zone of inhibition at 0.2 µg/disc (M. luteus; Micrococcus luteus, 200 ng/6.35-mm disk): 11 mm
zone of inhibition at 0.4 µg/disc (M. luteus; Micrococcus luteus, 400 ng/6.35-mm disk): 15 mm
zone of inhibition at 0.8 µg/disc (M. luteus; Micrococcus luteus, 800 ng/6.35-mm disk): 16 mm
zone of inhibition at 1.6 µg/disc (M. luteus; Micrococcus luteus, 1600 ng/6.35-mm disk): 18 mm
antimicrobial activity (in words) (M. luteus; dilutions accurate to within a factor of 2): approximately equivalent and represent the most potent compounds in the series
